# According to PubChem BioAssay (NCI):
#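 These data come from cells grown in 96-well plates and exposed to compound for 48 hours at five concentrations. At the TGI there is no net growth.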
# Experiments:
# Assay in all cases: inhibition of tumour cell growth, NCI panel, 48 h
# KM20L2 colon = system: KM20L2 colon
# SNB-75 CNS = system: SNB-75 CNS
# MALME-3M melanoma = system: MALME-3M melanoma
# MDA-N = system: MDA-N
# PC-3 prostate = system: PC-3 prostate
# HT29 colon = system: HT29 colon
# LOX IMVI melanoma = system: LOX IMVI melanoma
# MDA-MB-231 breast = system: MDA-MB-231 breast
# HL-60(TB) leukemia = system: HL-60(TB) leukemia
# CAKI-1 renal = system: CAKI-1 renal
# ACHN renal = system: ACHN renal
# UO-31 renal = system: UO-31 renal
# NCI-H23 lung = system: NCI-H23 lung
# DMS 273 small cell lung = system: DMS 273 small cell lung
# SF-539 CNS = system: SF-539 CNS
# SK-MEL-2 melanoma = system: SK-MEL-2 melanoma
# SNB-78 CNS = system: SNB-78 CNS
# A498 renal = system: A498 renal
# NCI-H522 lung = system: NCI-H522 lung
# SK-MEL-5 melanoma = system: SK-MEL-5 melanoma
# HOP-62 NSCLC = system: HOP-62 NSCLC
# XF 498 CNS = system: XF 498 CNS
# SF-295 CNS = system: SF-295 CNS
# OVCAR-4 ovarian = system: OVCAR-4 ovarian
# CCRF-CEM leukemia = system: CCRF-CEM leukemia
# HCT-116 colon = system: HCT-116 colon
# U251 CNS = system: U251 CNS
# SK-OV-3 ovarian = system: SK-OV-3 ovarian
# MDA-MB-435 = system: MDA-MB-435
# OVCAR-3 ovarian = system: OVCAR-3 ovarian
# NCI/ADR-RES ovarian = system: NCI/ADR-RES ovarian
# SF-268 CNS = system: SF-268 CNS
# NCI-H226 lung = system: NCI-H226 lung
# RXF 393 renal = system: RXF 393 renal
# A549 NSCLC = system: A549 NSCLC
# UACC-257 melanoma = system: UACC-257 melanoma
# IGROV1 ovarian = system: IGROV1 ovarian
# MCF7 breast = system: MCF7 breast
# HOP-92 NSCLC = system: HOP-92 NSCLC
# OVCAR-8 ovarian = system: OVCAR-8 ovarian
# TK-10 renal = system: TK-10 renal
# HCC-2998 colon = system: HCC-2998 colon
# HS 578T breast = system: HS 578T breast
# BT-549 breast = system: BT-549 breast
# LXFL 529 NSCLC = system: LXFL 529 NSCLC
# K-562 leukemia = system: K-562 leukemia
# SR leukemia = system: SR leukemia
# EKVX NSCLC = system: EKVX NSCLC
# OVCAR-5 ovarian = system: OVCAR-5 ovarian
# SW-620 colon = system: SW-620 colon
# M19-MEL melanoma = system: M19-MEL melanoma
# HOP-18 NSCLC = system: HOP-18 NSCLC
# SNB-19 CNS = system: SNB-19 CNS
# COLO 205 colon = system: COLO 205 colon
# DU-145 prostate = system: DU-145 prostate
# SK-MEL-28 melanoma = system: SK-MEL-28 melanoma
# RPMI-8226 leukemia = system: RPMI-8226 leukemia
# NCI-H460 lung = system: NCI-H460 lung
# HCT-15 colon = system: HCT-15 colon
# SN12C renal = system: SN12C renal
# DLD-1 colon = system: DLD-1 colon
# T-47D breast = system: T-47D breast
# 786-0 renal = system: 786-0 renal
# M14 melanoma = system: M14 melanoma
# MOLT-4 leukemia = system: MOLT-4 leukemia
# UACC-62 melanoma = system: UACC-62 melanoma
# KM12 colon = system: KM12 colon
smiles,measurement,setting,value
COc1c(OC(C)=O)c(OC(C)=O)cc2c1-c1ccc(SC)c(=O)cc1C(NC(C)=O)CC2 (configuration not stated),TGI,KM20L2 colon,6.84 µM
same,TGI,SNB-75 CNS,15.3 µM
same,TGI,MALME-3M melanoma,> 100 µM
same,TGI,MDA-N,0.576 µM
same,TGI,PC-3 prostate,> 100 µM
same,TGI,HT29 colon,> 100 µM
same,TGI,LOX IMVI melanoma,> 100 µM
same,TGI,MDA-MB-231 breast,> 100 µM
same,TGI,HL-60(TB) leukemia,0.61 µM
same,TGI,CAKI-1 renal,> 87.1 µM
same,TGI,ACHN renal,> 100 µM
same,TGI,UO-31 renal,> 100 µM
same,TGI,NCI-H23 lung,28.7 µM
same,TGI,DMS 273 small cell lung,> 100 µM
same,TGI,SF-539 CNS,0.846 µM
same,TGI,SK-MEL-2 melanoma,> 100 µM
same,TGI,SNB-78 CNS,> 100 µM
same,TGI,A498 renal,56 µM
same,TGI,NCI-H522 lung,0.576 µM
same,TGI,SK-MEL-5 melanoma,0.794 µM
same,TGI,HOP-62 NSCLC,> 100 µM
same,TGI,XF 498 CNS,> 28.8 µM
same,TGI,SF-295 CNS,21.3 µM
same,TGI,OVCAR-4 ovarian,> 100 µM
same,TGI,CCRF-CEM leukemia,> 100 µM
same,TGI,HCT-116 colon,> 100 µM
same,TGI,U251 CNS,> 42.2 µM
same,TGI,SK-OV-3 ovarian,> 44 µM
same,TGI,MDA-MB-435,0.632 µM
same,TGI,OVCAR-3 ovarian,> 100 µM
same,TGI,NCI/ADR-RES ovarian,> 100 µM
same,TGI,SF-268 CNS,> 100 µM
same,TGI,NCI-H226 lung,33.1 µM
same,TGI,RXF 393 renal,> 86.7 µM
same,TGI,A549 NSCLC,> 100 µM
same,TGI,UACC-257 melanoma,> 100 µM
same,TGI,IGROV1 ovarian,> 100 µM
same,TGI,MCF7 breast,> 100 µM
same,TGI,HOP-92 NSCLC,> 100 µM
same,TGI,OVCAR-8 ovarian,> 100 µM
same,TGI,TK-10 renal,> 96.3 µM
same,TGI,HCC-2998 colon,> 27.6 µM
same,TGI,HS 578T breast,0.701 µM
same,TGI,BT-549 breast,> 100 µM
same,TGI,LXFL 529 NSCLC,> 100 µM
same,TGI,K-562 leukemia,> 43.8 µM
same,TGI,SR leukemia,> 100 µM
same,TGI,EKVX NSCLC,> 100 µM
same,TGI,OVCAR-5 ovarian,> 100 µM
same,TGI,SW-620 colon,> 100 µM
same,TGI,M19-MEL melanoma,> 100 µM
same,TGI,HOP-18 NSCLC,> 100 µM
same,TGI,SNB-19 CNS,> 100 µM
same,TGI,COLO 205 colon,4.32 µM
same,TGI,DU-145 prostate,4.12 µM
same,TGI,SK-MEL-28 melanoma,> 100 µM
same,TGI,RPMI-8226 leukemia,> 100 µM
same,TGI,NCI-H460 lung,> 56.1 µM
same,TGI,HCT-15 colon,> 97.5 µM
same,TGI,SN12C renal,> 100 µM
same,TGI,DLD-1 colon,> 100 µM
same,TGI,T-47D breast,> 100 µM
same,TGI,786-0 renal,> 100 µM
same,TGI,M14 melanoma,> 100 µM
same,TGI,MOLT-4 leukemia,> 100 µM
same,TGI,UACC-62 melanoma,> 74.9 µM
same,TGI,KM12 colon,> 100 µM
